# Measured values as given in patent US12077503B2, “Substituted cyclic amides and their use as herbicides” (FMC CORPORATION, priority 2015, dated 2024).
# Tests used:
# Format in all cases: in vivo
# [1] = test system: barnyardgrass (Echinochloa crus-galli); assay: Test B flooded paddy test; settings: Echinochloa crus-galli, 250 g ai/ha, Flood; 0 to 100 scale where 0 is no effect and 100 is complete control; read-out: Barnyardgrass plant response rating
# Summary of the method: (§1)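 Flooding to 3 cm over soil accompanied treatment, which consisted of adding compound to the standing water around 2-leaf plants; depth was then maintained. Visual assessment versus controls followed at 13 to 15 d (scale 0–100, 0 meaning no effect).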
# [2] = test system: ducksalad (Heteranthera limosa); assay: Test B flooded paddy test; settings: Heteranthera limosa, 250 g ai/ha, Flood; 0 to 100 scale where 0 is no effect and 100 is complete control; read-out: Ducksalad plant response rating
# Summary of the method: as §1
# [3] = test system: sedge, umbrella (small-flower umbrella sedge, Cyperus difformis); assay: Test B flooded paddy test; settings: Cyperus difformis, 250 g ai/ha, Flood; 0 to 100 scale where 0 is no effect and 100 is complete control; read-out: Sedge, Umbrella plant response rating
# Summary of the method: as §1
# [4] = test system: rice (Oryra sativa); assay: Test B flooded paddy test; settings: Oryza sativa, 250 g ai/ha, Flood; 0 to 100 scale where 0 is no effect and 100 is complete control; read-out: Rice plant response rating
# Summary of the method: as §1
# [5] = test system: ragweed (common ragweed, Ambrosia elatior); assay: Test A preemergence; settings: Ambrosia artemisiifolia, pre-emergence, 240 h, 0 to 100 scale where 0 is no effect and 100 is complete control, read-out: Ragweed plant response rating; for pest or weed control at 31 g/ha: 31 g ai/ha, Preemergence; for pest or weed control at 125 g/ha: 125 g ai/ha, preemergence, visual injury rating, approximately 10 d
# Summary of the method: (§2)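 Seeds sprayed preemergence with a directed soil spray, or plants at 2 to 10 cm height and one- to two-leaf stage sprayed postemergence, with test chemicals in a non-phytotoxic solvent mixture containing surfactant, in loam soil–sand blend. Injury rated visually against untreated controls after about 10 d in greenhouse, 0 (no effect) to 100 (complete control).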
# [6] = test system: barnyardgrass (Echinochloa crus-galli); assay: Test A preemergence; settings: Echinochloa crus-galli, pre-emergence, 240 h, 0 to 100 scale where 0 is no effect and 100 is complete control, read-out: Barnyardgrass plant response rating; for pest or weed control at 31 g/ha: 31 g ai/ha, Preemergence; for pest or weed control at 125 g/ha: 125 g ai/ha, preemergence, visual injury rating, approximately 10 d
# Summary of the method: as §2
# [7] = test system: Kochia (Kochia scoparia); assay: Test A preemergence; settings: Bassia scoparia, pre-emergence, 240 h, 0 to 100 scale where 0 is no effect and 100 is complete control, read-out: Kochia plant response rating; for pest or weed control at 31 g/ha: 31 g ai/ha, Preemergence; for pest or weed control at 125 g/ha: 125 g ai/ha, preemergence, visual injury rating, approximately 10 d
# Summary of the method: as §2
# [8] = test system: ryegrass, Italian (Italian ryegrass, Lolium multiflorum); assay: Test A preemergence; settings: Lolium multiflorum, pre-emergence, 240 h, 0 to 100 scale where 0 is no effect and 100 is complete control, read-out: Ryegrass, Italian plant response rating; for pest or weed control at 31 g/ha: 31 g ai/ha, Preemergence; for pest or weed control at 125 g/ha: 125 g ai/ha, preemergence, visual injury rating, approximately 10 d
# Summary of the method: as §2
# [9] = test system: giant foxtail (Setaria faberii); assay: Test A preemergence; settings: Setaria faberi, pre-emergence, 240 h, 0 to 100 scale where 0 is no effect and 100 is complete control, read-out: Foxtail, Giant plant response rating; for pest or weed control at 31 g/ha: 31 g ai/ha, Preemergence; for pest or weed control at 125 g/ha: 125 g ai/ha, preemergence, visual injury rating, approximately 10 d
# Summary of the method: as §2
# [10] = test system: pigweed (Amaranthus retroflexus); assay: Test A preemergence; settings: Amaranthus retroflexus, pre-emergence, 240 h, 0 to 100 scale where 0 is no effect and 100 is complete control, read-out: Pigweed plant response rating; for pest or weed control at 31 g/ha: 31 g ai/ha, Preemergence; for pest or weed control at 125 g/ha: 125 g ai/ha, preemergence, visual injury rating, approximately 10 d
# [11] = test system: ragweed (common ragweed, Ambrosia elatior); assay: Test A postemergence; settings: Ambrosia artemisiifolia, post-emergence, 240 h, read-out: Ragweed plant response rating (0 to 100 scale); for pest or weed control at 125 g/ha: 125 g ai/ha, postemergence, visual injury vs untreated controls after approx. 10 d, 0 = no effect, 100 = complete control; for pest or weed control at 31 g/ha: Postemergence, 31 g ai/ha, 0 is no effect, 100 is complete control
# Summary of the method: as §2
# [12] = test system: barnyardgrass (Echinochloa crus-galli); assay: Test A postemergence; settings: Echinochloa crus-galli, post-emergence, 240 h, read-out: Barnyardgrass plant response rating (0 to 100 scale); for pest or weed control at 125 g/ha: 125 g ai/ha, postemergence, visual injury vs untreated controls after approx. 10 d, 0 = no effect, 100 = complete control; for pest or weed control at 31 g/ha: Postemergence, 31 g ai/ha, 0 is no effect, 100 is complete control
# Summary of the method: as §2
# [13] = test system: blackgrass (Alopecurus myosuroides); assay: Test A postemergence; settings: Alopecurus myosuroides, post-emergence, 240 h, read-out: Blackgrass plant response rating (0 to 100 scale); for pest or weed control at 125 g/ha: 125 g ai/ha, postemergence, visual injury vs untreated controls after approx. 10 d, 0 = no effect, 100 = complete control; for pest or weed control at 31 g/ha: Postemergence, 31 g ai/ha, 0 is no effect, 100 is complete control
# Summary of the method: as §2
# [14] = test system: corn (Zea mays); assay: Test A postemergence; settings: Zea mays, post-emergence, 240 h, read-out: Corn plant response rating (0 to 100 scale); for plant injury at 125 g/ha: 125 g ai/ha, postemergence, visual injury vs untreated controls after approx. 10 d, 0 = no effect, 100 = complete control; for plant injury at 31 g/ha: Postemergence, 31 g ai/ha, 0 is no effect, 100 is complete control
# Summary of the method: as §2
# [15] = test system: Kochia (Kochia scoparia); assay: Test A postemergence; settings: Bassia scoparia, post-emergence, 240 h, read-out: Kochia plant response rating (0 to 100 scale); for pest or weed control at 125 g/ha: 125 g ai/ha, postemergence, visual injury vs untreated controls after approx. 10 d, 0 = no effect, 100 = complete control; for pest or weed control at 31 g/ha: Postemergence, 31 g ai/ha, 0 is no effect, 100 is complete control
# Summary of the method: as §2
# [16] = test system: Galium (catchweed bedstraw, Galium aparine); assay: Test A postemergence; settings: Galium, post-emergence, 240 h, read-out: Galium plant response rating (0 to 100 scale); for pest or weed control at 125 g/ha: 125 g ai/ha, postemergence, visual injury vs untreated controls after approx. 10 d, 0 = no effect, 100 = complete control; for pest or weed control at 31 g/ha: Postemergence, 31 g ai/ha, 0 is no effect, 100 is complete control
# Summary of the method: as §2
# [17] = test system: ryegrass, Italian (Italian ryegrass, Lolium multiflorum); assay: Test A postemergence; settings: Lolium multiflorum, post-emergence, 240 h, read-out: Ryegrass, Italian plant response rating (0 to 100 scale); for pest or weed control at 125 g/ha: 125 g ai/ha, postemergence, visual injury vs untreated controls after approx. 10 d, 0 = no effect, 100 = complete control; for pest or weed control at 31 g/ha: Postemergence, 31 g ai/ha, 0 is no effect, 100 is complete control
# Summary of the method: as §2
# [18] = test system: giant foxtail (Setaria faberii); assay: Test A postemergence; settings: Setaria faberi, post-emergence, 240 h, read-out: Foxtail, Giant plant response rating (0 to 100 scale); for pest or weed control at 125 g/ha: 125 g ai/ha, postemergence, visual injury vs untreated controls after approx. 10 d, 0 = no effect, 100 = complete control; for pest or weed control at 31 g/ha: Postemergence, 31 g ai/ha, 0 is no effect, 100 is complete control
# Summary of the method: as §2
# [19] = test system: pigweed (Amaranthus retroflexus); assay: Test A postemergence; settings: Amaranthus retroflexus, post-emergence, 240 h, read-out: Pigweed plant response rating (0 to 100 scale); for pest or weed control at 125 g/ha: 125 g ai/ha, postemergence, visual injury vs untreated controls after approx. 10 d, 0 = no effect, 100 = complete control; for pest or weed control at 31 g/ha: Postemergence, 31 g ai/ha, 0 is no effect, 100 is complete control
# Summary of the method: as §2
# [20] = test system: wheat (Triticum aestivum); assay: Test A postemergence; settings: Triticum aestivum, post-emergence, 240 h, Postemergence, 31 g ai/ha; 0 is no effect, 100 is complete control; read-out: Wheat plant response rating (0 to 100 scale)
# Summary of the method: as §2
smiles,measurement,setting,value
CN1C[C@H](c2ccc(F)c(Oc3ccccc3)c2)[C@@H](C(=O)Nc2cccc(F)c2F)C1=O [Compound 1259],pest or weed control at 250 g/ha,[1],0%
same,pest or weed control at 250 g/ha,[2],0%
same,pest or weed control at 250 g/ha,[3],0%
same,pest or weed control at 250 g/ha,[4],0%
same,pest or weed control at 31 g/ha,[5],0%
same,pest or weed control at 125 g/ha,[5],0%
same,pest or weed control at 31 g/ha,[6],0%
same,pest or weed control at 125 g/ha,[6],60%
same,pest or weed control at 31 g/ha,[7],0%
same,pest or weed control at 125 g/ha,[7],0%
same,pest or weed control at 31 g/ha,[8],0%
same,pest or weed control at 125 g/ha,[8],30%
same,pest or weed control at 31 g/ha,[9],40%
same,pest or weed control at 125 g/ha,[9],90%
same,pest or weed control at 31 g/ha,[10],30%
same,pest or weed control at 125 g/ha,[10],30%
same,pest or weed control at 125 g/ha,[11],0%
same,pest or weed control at 31 g/ha,[11],0%
same,pest or weed control at 125 g/ha,[12],80%
same,pest or weed control at 31 g/ha,[12],30%
same,pest or weed control at 125 g/ha,[13],0%
same,pest or weed control at 31 g/ha,[13],0%
same,plant injury at 125 g/ha,[14],70%
same,plant injury at 31 g/ha,[14],0%
same,pest or weed control at 125 g/ha,[15],0%
same,pest or weed control at 31 g/ha,[15],0%
same,pest or weed control at 125 g/ha,[16],80%
same,pest or weed control at 31 g/ha,[16],60%
same,pest or weed control at 125 g/ha,[17],0%
same,pest or weed control at 31 g/ha,[17],0%
same,pest or weed control at 125 g/ha,[18],70%
same,pest or weed control at 31 g/ha,[18],30%
same,pest or weed control at 125 g/ha,[19],60%
same,pest or weed control at 31 g/ha,[19],40%
same,plant injury at 31 g/ha,[20],0%
Cc1c(F)cccc1NC(=O)[C@H]1C(=O)N(C)C[C@@H]1c1ccc(C(F)F)cc1 [Compound 1261],pest or weed control at 250 g/ha,[1],75%
same,pest or weed control at 250 g/ha,[2],100%
same,pest or weed control at 250 g/ha,[3],0%
same,pest or weed control at 250 g/ha,[4],50%
same,pest or weed control at 31 g/ha,[5],50%
same,pest or weed control at 125 g/ha,[5],50%
same,pest or weed control at 31 g/ha,[6],90%
same,pest or weed control at 125 g/ha,[6],90%
same,pest or weed control at 31 g/ha,[7],70%
same,pest or weed control at 125 g/ha,[7],80%
same,pest or weed control at 31 g/ha,[8],20%
same,pest or weed control at 125 g/ha,[8],30%
same,pest or weed control at 31 g/ha,[9],90%
same,pest or weed control at 125 g/ha,[9],90%
same,pest or weed control at 31 g/ha,[10],0%
same,pest or weed control at 125 g/ha,[10],20%
same,pest or weed control at 125 g/ha,[11],30%
same,pest or weed control at 31 g/ha,[11],0%
same,pest or weed control at 125 g/ha,[12],90%
same,pest or weed control at 31 g/ha,[12],90%
same,pest or weed control at 125 g/ha,[13],60%
same,pest or weed control at 31 g/ha,[13],40%
same,plant injury at 125 g/ha,[14],80%
same,plant injury at 31 g/ha,[14],50%
same,pest or weed control at 125 g/ha,[15],50%
same,pest or weed control at 31 g/ha,[15],20%
same,pest or weed control at 125 g/ha,[16],60%
same,pest or weed control at 31 g/ha,[16],50%
same,pest or weed control at 125 g/ha,[17],50%
same,pest or weed control at 31 g/ha,[17],20%
same,pest or weed control at 125 g/ha,[18],90%
same,pest or weed control at 31 g/ha,[18],90%
same,pest or weed control at 125 g/ha,[19],30%
same,pest or weed control at 31 g/ha,[19],0%
same,plant injury at 31 g/ha,[20],20%
